Test in all cases: NCI tumour cell line growth inhibition, 48 h
In assay [1] the test system is K-562 leukemia.
Assay [2] deals with T-47D breast.
For assay [3], the system named is HL-60(TB) leukemia.
Assay [4] deals with SK-MEL-5 melanoma.
Assay [5] relates to PC-3 prostate.
Assay [6] concerns NCI/ADR-RES ovarian.
The subject of assay [7] is RXF 393 renal.
Assay [8] has as its system KM12 colon.
The subject of assay [9] is UACC-257 melanoma.
The subject of assay [10] is MOLT-4 leukemia.

Each structure is given as a SMILES string.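 Briefly, cells in 96-well plates were exposed to five compound concentrations for 48 h, and endpoints were estimated by linear interpolation. Abbreviation: GI50, concentration required for 50% inhibition of growth. TGI marks complete inhibition of growth.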

In the case of `COc1ccc(-c2nn(-c3cccc(NC(=O)c4cccc(C(F)(F)F)c4)c3)cc2-c2ccncc2)cc1Cl`, the GI50 in assay [1] is 0.837 µM; in [2], 2.56 µM; in assay [3], 2.96 µM; in [4] it was 1.06 µM; in assay [5], 1.98 µM; in assay [6], 1.75 µM. The GI50 is 1.46 µM in assay [7], 1.35 µM in [8], 6.67 µM in [9] and 2.62 µM in assay [10]. For the same molecule, the TGI in assay [1] was greater than 100 µM; in assay [2] it was greater than 100 µM; in assay [3], 8.64 µM; in assay [4] it was 4.4 µM; in assay [5] it was greater than 100 µM; in assay [6] it was 14 µM. Besides, the TGI is 7.78 µM in [7], 9.7 µM in assay [8], 61.7 µM in [9] and greater than 100 µM in [10].

`N#CCCSC(=S)C1CCCC1=N` (configuration not stated): the TGI in assay [1], in [2], in assay [3], in assay [4], in assay [5] and in [6] was greater than 100 µM throughout. The TGI in [7], in assay [8], in assay [9] and in assay [10] was greater than 100 µM each time.

Turning to `Cc1cc2cc3cc(C)c(N)cc3[n+](C)c2cc1N`, the GI50 in assay [1] is 1.64 µM; in assay [2], 1.06 µM; in assay [3] it was 2.31 µM; in assay [4], 0.762 µM; in assay [5] it was 1.7 µM; in assay [6], 5.56 µM. The GI50 is 0.584 µM in [7], 1.1 µM in [8], 1.05 µM in assay [9] and 2.58 µM in assay [10]. The TGI in [1] is 9.47 µM; in assay [2], 5.44 µM; in assay [3], 7.74 µM; in [4] it was 2.08 µM; in assay [5], 10.3 µM; in assay [6], 23.4 µM. Also, the TGI in assay [7] came out at 4.33 µM; in assay [8], 4.29 µM; in [9], 7.5 µM; in [10] it was 13.6 µM.

Consider `CNC(=O)NC(CCCCNC(=O)OCc1ccccc1)C(=O)OCc1ccccc1` (configuration not stated), for which the TGI was 89.4 µM in assay [1]; 51.3 µM in assay [2]; 65.6 µM in [3]; 31.5 µM in [4]; greater than 100 µM in assay [5]; greater than 100 µM in [6]. Moreover, the TGI is 53.6 µM in assay [7], greater than 100 µM in assay [8], 36.8 µM in [9] and 58.7 µM in [10].

As to `CCCCCCCCCCCCCCCCCC(=O)OCC(COC1OC(CS(=O)(=O)O)C(O)C(O)C1O)OC(=O)CCCCCCCCCCCCCCCCC` (configuration not stated), the TGI in [1], in assay [2], in assay [3], in assay [4], in assay [5] and in assay [6] was greater than 100 µM throughout. Besides, the TGI in [7], in assay [8], in assay [9] and in assay [10] was greater than 100 µM each time.

Turning to `O=C(NCCNc1nccc(-c2c(-c3ccc(F)cc3)nc3sccn23)n1)c1ccccc1`, the GI50 in [1] is 7.72 µM; in [2], 1.91 µM; in [3] it was 21.3 µM; in [4], 1.66 µM; in [5], 10.8 µM; in assay [6], 7.13 µM. Also, the GI50 in assay [7] was 6.19 µM; in assay [8], 7.6 µM; in [9], 14.3 µM; in assay [10], 12.2 µM. The TGI in assay [1] is greater than 100 µM; in assay [2], 20.9 µM; in [3], 77.4 µM; in assay [4], 13.3 µM; in assay [5], 89.2 µM; in assay [6], 76.4 µM. The TGI in assay [7] worked out at 28.3 µM; in [8], 22.4 µM; in assay [9], 41.1 µM; in assay [10], 54.8 µM.

As to `NC1=CC(=O)c2nc3ccccc3c3ccnc1c23`, the GI50 was 4.26 µM in [1]; 7.85 µM in assay [2]; 6.38 µM in assay [3]; 6.53 µM in assay [5]; 7.33 µM in assay [6]; 4.78 µM in assay [7]. Besides, the GI50 was 3.05 µM in assay [8], 2.37 µM in assay [9] and 3.21 µM in assay [10]. The TGI in assay [1] is greater than 100 µM; in assay [2], greater than 67.4 µM; in assay [3], greater than 58.8 µM; in assay [5], greater than 48 µM; in assay [6], 69.4 µM; in [7], 17.2 µM. Besides, the TGI in assay [8] was greater than 65.9 µM; in assay [9] it was 20 µM; in [10] it was greater than 100 µM.

Regarding `N#Cc1c(N)nc(NCc2ccccc2)c(C#N)c1-c1ccccc1Cl`, the GI50 was 67.3 µM in assay [2]; 51.3 µM in [4]; 12 µM in assay [5]; 37.1 µM in assay [6]; 24.6 µM in [7]; 47 µM in assay [8]. Further, the GI50 was greater than 100 µM in assay [9] and 26.8 µM in assay [10]. In addition, the TGI in assay [2], in assay [4], in assay [5], in [6], in assay [7] and in [8] was greater than 100 µM each time. Besides, the TGI in assay [9] and in [10] was greater than 100 µM throughout.

For the molecule `COc1ccc(CCN2CCC(Nc3nc4ccccc4n3Cc3ccc(F)cc3)CC2)cc1`, the GI50 in [2] was 1.97 µM; in assay [3], 1.96 µM; in assay [4], 1.32 µM; in assay [5], 1.8 µM; in [6], 1.59 µM; in [7], 1.16 µM. In addition, the figures for the GI50 in [8], in [9] and in assay [10] were 1.71 µM, 1.67 µM and 1.67 µM, respectively. The TGI in assay [2] amounted to 4.38 µM; in assay [3] it was 3.81 µM; in assay [4] it was 2.6 µM; in [5], 5.66 µM; in assay [6] it was 3.32 µM; in assay [7], 2.44 µM. For the same molecule, the TGI in [8] came to 3.13 µM; in assay [9], 3.48 µM; in assay [10], 4.71 µM.

These data come from PubChem BioAssay (NCI).
